Assay results taken from patent US9701664B2, “Fused 1,4-dihydrodioxin derivatives as inhibitors of heat shock transcription factor 1” (Cancer Research Technology Limited, priority 2013, dated 2017).
pIC50: −log10 of the molar value.

Assays:
[1] = tested on: HSP72 in SK-OV-3 cells; experiment: Cell-based ELISA (Cellisa) assay, SK-OV-3 cells: inhibition of 17-AAG-induced HSP72; conditions: SK-OV-3 cells (Examples 169-218)
Method: U2OS cells (5-8×10^4 cells/mL) or SK-OV-3 cells (5-8×10^4 cells/mL) were seeded into 96-well plates and incubated at 37° C. for 48 h. Compounds were then added at a range of concentrations and incubated for 1 h before addition of 17-AAG (250 nM). Cells were then incubated for 18 h. The medium was removed washed 2× with PBS and cells were then fixed with fixing solution (4% paraformaldehyde, 0.3% TritonX-100 in PBS) for 30 min at 4° C. The plates were then washed 2× with PBS before blocking with 5% milk for 30 min at 37° C. After washing the plates 4× with 0.1% Tween-20/deionised water, HSP72 antibody (SPA-810, Enzo Life) was added for 1.5 h at 37° C. Following 4× washes, the plates were incubated with europium-labelled anti-mouse antibody (0.6 ug/ml) in Delfia assay buffer (Perkin Elmer) for 1 h at 37° C. After washing the plates, Delfia enhancement solution was added, shaken for 10 min before reading in the Envision plate reader (Perkin-Elmer) with excitation at 340 nm and emission at 615 nm. The plates were washed again before protein determination using the bicinchoninic acid assay (BCA assay, Pierce Biotechnology). The europium counts were normalised for the amount of protein in each well. The 50% inhibitory concentration value of the compound was then calculated.

[2] = tested on: HSP72 in U2OS cells; experiment: Cell-based ELISA (Cellisa) assay, U2OS cells: inhibition of 17-AAG-induced HSP72; conditions: Homo sapiens; U2OS cells (Examples 1-168)
[3] = tested on: U2OS cells; experiment: Titre Blue cell viability assay, U2OS cells; type: cell-based; conditions: Homo sapiens, U2OS

| Molecule | pIC50 ([1]; Homo sapiens) | other results |
| --- | --- | --- |
| Cc1ccc(NC(=O)c2ccc3c(c2)OCCO3)cc1NC(=O)c1ccc2nc(CN3CCN(C(C)C)CC3)ccc2c1 [Example 202, N-(5-(2,3-dihydrobenzo[b][1,4]dioxine-6-carboxamido)-2-methylphenyl)-2-((4-isopropylpiperazin-1-yl)methyl)quinoline-6-carboxamide] | 7.21 |  |
| C[C@@H]1CCCN1Cc1ccc2cc(C(=O)Nc3cc(NC(=O)c4ccc5c(c4)OCCO5)ccc3F)ccc2n1 [Example 176, (R)—N-(5-(2,3-dihydrobenzo[b][1,4]dioxine-6-carboxamido)-2-fluorophenyl)-2-((2-methylpyrrolidin-1-yl)methyl)quinoline-6-carboxamide] | 6.50 |  |
| 2-((4-(tert-butyl)piperazin-111)methyl)-N-(5-(2,3-dihydrobenzo[b][1,4]dioxine-6-carboxamido)-2-fluorophenyl)quinoline-6-carboxamide [Example 177] |  | pIC50 [1]: 7.15 |
| CCN1CCN(Cc2ccc3cc(C(=O)Nc4cc(NC(=O)c5ccc6c(c5)OCCO6)ccc4F)ccc3n2)[C@@H](C)C1 [Example 213, (S)—N-(5-(2,3-dihydrobenzo[b][1,4]dioxine-6-carboxamido)-2-fluorophenyl)-2-((4-ethyl-2-methylpiperazin-1-yl)methyl)quinoline-6-carboxamide] | 7.24 |  |
| CC(C)(C)N1CCN(Cc2ccc3cc(C(=O)Nc4cc(NC(=O)c5ccc6c(c5)OCCO6)ccc4Cl)ccc3n2)CC1 [Example 191, 2-((4-(tert-butyl)piperazin-1-yl)methyl)-N-(2-chloro-5-(2,3 dihydrobenzo[b][1,4]dioxine-6-carboxamido)phenyl)quinoline-6-carboxamide] | 6.87 |  |
| O=C(Nc1ccc(F)c(NC(=O)c2ccc3nc(OCCCN4CCCC4)ccc3c2)c1)c1ccc2c(c1)OCCO2 [Example 187, N-(5-(2,3-dihydrobenzo[b][1,4]dioxine-6-carboxamido)-2-fluorophenyl)-2-(3-(pyrrolidin-1-yl)propoxy)quinoline-6-carboxamide] | 8.00 |  |
| CCN1CCN(Cc2ccc3cc(C(=O)Nc4cc(NC(=O)c5ccc6c(c5)OCCO6)ccc4F)ccc3n2)[C@H](C)C1 [Example 212, (R)—N-(5-(2,3-dihydrobenzo[b][1,4]dioxine-6-carboxamido)-2-fluorophenyl)-2-((4-ethyl-2-methylpiperazin-1-yl)methyl)quinoline-6-carboxamide] | 7.07 |  |
| CCN1CCN(Cc2ccc3cc(C(=O)Nc4cc(NC(=O)c5ccc6c(c5)OCCO6)ccc4Cl)ccc3n2)CC1 [Example 196, N-(2-chloro-5-(2,3-dihydrobenzo[b][1,4]dioxine-6-carboxamido)phenyl)-2-((4-ethylpiperazin-1-yl)methyl)quinoline-6-carboxamide] | 7.32 |  |
| O=C(Nc1ccc(F)c(NC(=O)c2ccc3nc(CN4CCC4)ccc3c2)c1)c1ccc2c(c1)OCCO2 [Example 171, 2-(azetidin-1-ylmethyl)-N-(5-(2,3-dihydrobenzo[b][1,4]dioxine-6-carboxamido)-2-fluorophenyl)quinoline-6-carboxamide] | 6.35 |  |
| O=C(Nc1ccc(Cl)c(NC(=O)c2ccc3nc(OCCCN4CCCCC4)ccc3c2)c1)c1ccc2c(c1)OCCO2 [Example 189, N-(2-chloro-5-(2,3-dihydrobenzo[b][1,4]dioxine-6-carboxamido)phenyl)-2-(3-(piperidin-1-yl)propoxy)quinoline-6-carboxamide] | 7.57 |  |
| CC1CN(Cc2ccc3cc(C(=O)Nc4cc(NC(=O)c5ccc6c(c5)OCCO6)ccc4F)ccc3n2)C1 [Example 182, N-(5-(2,3-dihydrobenzo[b][1,4]dioxine-6-carboxamido)-2-fluorophenyl)-2-((3-methylazetidin-1-yl)methyl)quinoline-6-carboxamide] | 6.63 |  |
| CC(C)N1CCN(Cc2ccc3cc(C(=O)Nc4cc(NC(=O)c5ccc6c(c5)OCCO6)ccc4F)ccc3n2)[C@H](C)C1 [Example 218, (R)—N-(5-(2,3-dihydrobenzo[b][1,4]dioxine-6-carboxamido)-2-fluorophenyl)-2-((4-isopropyl-2-methylpiperazin-1-yl)methyl)quinoline-6-carboxamide] | 7.10 |  |
| C[C@H]1CCCN1Cc1ccc2cc(C(=O)Nc3cc(NC(=O)c4ccc5c(c4)OCCO5)ccc3F)ccc2n1 [Example 175, (S)—N-(5-(2,3-dihydrobenzo[b][1,4]dioxine-6-carboxamido)-2-fluorophenyl)-2-((2-methylpyrrolidin-1-yl)methyl)quinoline-6-carboxamide] | 6.19 |  |
| O=C(Nc1ccc(Cl)c(NC(=O)c2ccc3nc(OCCN4CCCC4)ccc3c2)c1)c1ccc2c(c1)OCCO2 [Example 211, N-(2-chloro-5-(2,3-dihydrobenzo[b][1,4]dioxine-6-carboxamido)phenyl)-2-(2-(pyrrolidin-1-yl)ethoxy)quinoline-6-carboxamide] | 7.14 |  |
| CCN1CCCN(Cc2ccc3cc(C(=O)Nc4cc(NC(=O)c5ccc6c(c5)OCCO6)ccc4F)ccc3n2)CC1 [Example 184, N-(5-(2,3-dihydrobenzo[b][1,4]dioxine-6-carboxamido)-2-fluorophenyl)-2-((4-ethyl-1,4-diazepan-1-yl)methyl)quinoline-6-carboxamide] | 7.22 |  |
| CC1(C)CN(Cc2ccc3cc(C(=O)Nc4cc(NC(=O)c5ccc6c(c5)OCCO6)ccc4F)ccc3n2)C1 [Example 183, N-(5-(2,3-dihydrobenzo[b][1,4]dioxine-6-carboxamido)-2-fluorophenyl)-2-((3,3-dimethylazetidin-1-yl)methyl)quinoline-6-carboxamide] | 6.88 |  |
| CC(C)N1CCN(Cc2ccc3cc(C(=O)Nc4cc(NC(=O)c5ccc6c(c5)OCCO6)ccc4Cl)ccc3n2)CC1 [Example 197, N-(2-chloro-5-(2,3-dihydrobenzo[b][1,4]dioxine-6-carboxamido)phenyl)-2-((4-isopropylpiperazin-1-yl)methyl)quinoline-6-carboxamide] | 7.37 |  |
| CCN1CCN(C(C)c2ccc3cc(C(=O)Nc4cc(NC(=O)c5ccc6c(c5)OCCO6)ccc4F)ccc3n2)CC1 (stereo not shown) [Example 214, N-(5-(2,3-dihydrobenzo[b][1,4]dioxine-6-carboxamido)-2-fluorophenyl)-2-(1-(4-ethylpiperazin-1-yl)ethyl)quinoline-6-carboxamide] | 6.02 |  |
| O=C(Nc1ccc(F)c(NC(=O)c2ccc3nc(OCCN4CCCC4)ccc3c2)c1)c1ccc2c(c1)OCCO2 [Example 188, N-(5-(2,3-dihydrobenzo[b][1,4]dioxine-6-carboxamido)-2-fluorophenyl)-2-(2-(pyrrolidin-1-yl)ethoxy)quinoline-6-carboxamide] | 7.24 |  |
| CN1CCN(Cc2ccc3cc(C(=O)Nc4cc(NC(=O)c5ccc6c(c5)OCCO6)ccc4Cl)ccc3n2)CC1 [Example 195, N-(2-chloro-5-(2,3-dihydrobenzo[b][1,4]dioxine-6-carboxamido)phenyl)-2-((4-methylpiperazin-1-yl)methyl)quinoline-6-carboxamide] | 7.18 |  |
| CCN1C[C@@H]2C[C@H]1CN2Cc1ccc2cc(C(=O)Nc3cc(NC(=O)c4ccc5c(c4)OCCO5)ccc3F)ccc2n1 [Example 180, N-(5-(2,3-dihydrobenzo[b][1,4]dioxine-6-carboxamido)-2-fluorophenyl)-2-(((1S,4S)-5-ethyl-2,5-diazabicyclo[2.2.1]heptan-2-yl)methyl)quinoline-6-carboxamide] | 6.68 |  |
| O=C(Nc1ccc(F)c(NC(=O)c2ccc3nc(CN4CCCCC4)ccc3c2)c1)c1ccc2c(c1)OCCO2 [Example 172, N-(5-(2,3-dihydrobenzo[b][1,4]dioxine-6-carboxamido)-2-fluorophenyl)-2-(piperidin-1-ylmethyl)quinoline-6-carboxamide] | 6.17 |  |
| Cc1ccc(NC(=O)c2ccc3c(c2)OCCO3)cc1NC(=O)c1ccc2nc(CN3CCC3)ccc2c1 [Example 203, 2-(azetidin-1-ylmethyl)-N-(5-(2,3-dihydrobenzo[b][1,4]dioxine-6-carboxamido)-2-methylphenyl)quinoline-6-carboxamide] | 7.64 |  |
| O=C(Nc1ccc(Cl)c(NC(=O)c2ccc3nc(CN4CCCC4)ccc3c2)c1)c1ccc2c(c1)OCCO2 [Example 198, N-(2-chloro-5-(2,3-dihydrobenzo[b][1,4]dioxine-6-carboxamido)phenyl)-2-(pyrrolidin-1-ylmethyl)quinoline-6-carboxamide] | 6.76 |  |
| CN1CCN(Cc2ccc3cc(C(=O)Nc4cc(NC(=O)c5ccc6c(c5)OCCO6)ccc4F)ccc3n2)CC1 [Example 173, N-(5-(2,3-dihydrobenzo[b][1,4]dioxine-6-carboxamido)-2-fluorophenyl)-2-((4-methylpiperazin-1-yl)methyl)quinoline-6-carboxamide] | 7.00 |  |
| CC1CN(Cc2ccc3cc(C(=O)Nc4cc(NC(=O)c5ccc6c(c5)OCCO6)ccc4Cl)ccc3n2)C1 [Example 200, N-(2-chloro-5-(2,3-dihydrobenzo[b][1,4]dioxine-6-carboxamido)phenyl)-2-((3-methylazetidin-1-yl)methyl)quinoline-6-carboxamide] | 7.08 |  |
| CNC(=O)c1ccc(C(=O)Nc2cc(NC(=O)c3ccc4c(c3)OCCO4)ccc2C)cn1 [Example 33, N5-(5-(2,3-dihydrobenzo[b][1,4]dioxine-6-carboxamido)-2-methylphenyl)-N2-methylpyridine-2,5-dicarboxamide] |  | pIC50 [2]: 6.10; pIC50 [3]: 6.64 |
